Experimental data reported in paper PMC5834214 (PLoS Pathogens, 2018).
Where two headings read alike, the source gives them in different places.

Legend:
eGFP = eGFP (Aequorea victoria, UniProt P42212, F64L/H231L/S65T)
LCMV NP (Strep-NP) = LCMV NP (Strep-NP) (Lymphocytic choriomeningitis virus, UniProt P09992)
scrLCMV/ZsG-P2A-NP = format: cell-based, lymphocytic choriomeningitis virus
rLASV/eGFP = test: microbe, parasite or virus in culture; format: cell-based, Lassa virus; conditions: Mammarenavirus lassaense, A549, 48 h, read-out: IC50 (LASV, eGFP expression)
rLCMV/eGFP [1] = test: microbe, parasite or virus in culture; conditions: Mammarenavirus choriomeningitidis, Vero C1008, 48 h, read-out: IC50 (anti-LCMV, eGFP expression)
in vitro [2] = conditions: grivet
rLCMV/eGFP [3] = format: cell-based, lymphocytic choriomeningitis virus
rLCMV/eGFP [4] = format: cell-based, lymphocytic choriomeningitis virus; remark: listed apart in the source
rLCMV/eGFP [5] = format: cell-based, lymphocytic choriomeningitis virus; remark: listed apart in the source
rLCMVΔGPC/eGFP = format: cell-based, lymphocytic choriomeningitis virus
rVSV/eGFP = format: cell-based, vesicular stomatitis Indiana virus
rLCMV/eGFP [6] = test: microbe, parasite or virus in culture; conditions: Mammarenavirus choriomeningitidis, A549, 48 h
r3JUNV/eGFP = format: cell-based, Junín virus
in vitro [7] = conditions: human
rLCMV/eGFP [8] = format: cell-based, lymphocytic choriomeningitis virus; remark: listed apart in the source
LASV Z-mediated budding = format: cell-based, Lassa virus
LCMV Z-mediated budding = format: cell-based, lymphocytic choriomeningitis virus
[9] = read-out: IC50 (anti-LCMV, eGFP expression)

Chain of LCMV NP (Strep-NP) (P09992 whole entry): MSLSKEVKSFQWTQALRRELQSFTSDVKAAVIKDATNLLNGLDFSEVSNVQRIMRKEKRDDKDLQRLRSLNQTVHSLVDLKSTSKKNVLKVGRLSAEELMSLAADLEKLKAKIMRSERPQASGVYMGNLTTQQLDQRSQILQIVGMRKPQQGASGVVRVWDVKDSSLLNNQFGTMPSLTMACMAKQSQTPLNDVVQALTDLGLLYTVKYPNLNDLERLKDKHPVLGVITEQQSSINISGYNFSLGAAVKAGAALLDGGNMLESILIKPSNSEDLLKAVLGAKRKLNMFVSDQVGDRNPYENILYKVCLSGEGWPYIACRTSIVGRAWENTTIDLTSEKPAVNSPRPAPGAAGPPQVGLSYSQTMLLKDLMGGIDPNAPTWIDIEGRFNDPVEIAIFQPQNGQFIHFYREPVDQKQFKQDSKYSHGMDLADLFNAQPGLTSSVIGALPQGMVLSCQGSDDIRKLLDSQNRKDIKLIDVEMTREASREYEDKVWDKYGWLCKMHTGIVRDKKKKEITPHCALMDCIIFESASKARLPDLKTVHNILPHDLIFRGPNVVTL

Compound	IC50 (rLASV/eGFP)	IC50 (rLCMV/eGFP [1])	CC50 (in vitro [2])	production of infectious LCMV progeny (rLCMV/eGFP [3])	eGFP expression in infected cells (rLCMV/eGFP [5])	reporter eGFP expression (virus RNA synthesis) (rLCMVΔGPC/eGFP)	Multiplication of VSV (rVSV/eGFP)	IC50 (rLCMV/eGFP [6]; [9])	JUNV multiplication (r3JUNV/eGFP)	CC50 (in vitro [7])	cell entry of LCMV (rLCMV/eGFP [8])	number of eGFP+ cells (rLCMV/eGFP [8])	further results
SPTAN1													Spectral count eGFP Average (eGFP): 0; Spectral count eGFP Exp. 1 (eGFP): 0; Spectral count eGFP Exp. 2 (eGFP): 0; Spectral count NP Average (LCMV NP (Strep-NP)): 4; Spectral count NP Exp. 1 (LCMV NP (Strep-NP)): 4; Spectral count NP Exp. 2 (LCMV NP (Strep-NP)): 4
C[C@@H]1O[C@@H](O[C@H]2C[C@@H](O)[C@]3(CO)[C@H]4[C@H](O)C[C@]5(C)[C@@H](C6=CC(=O)OC6)CC[C@]5(O)[C@@H]4CC[C@]3(O)C2)[C@H](O)[C@H](O)[C@H]1O [ouabain]	0.00934 µM	0.0184 µM	0.07 µM	reduced	strong dose-dependent inhibition of eGFP expression	did not affect reporter eGFP expression	not significantly affected	0.00579 µM	strongly suppressed JUNV multiplication	0.0289 µM	neither ouabain nor rocaglamide inhibited cell entry of LCMV	reduced at all time-of-addition points compared to vehicle	assembly de novo of extracellular infectious virus (GP-incorporation efficiency) (scrLCMV/ZsG-P2A-NP): did not inhibit assembly de novo of extracellular infectious virus; assembly de novo of extracellular infectious virus (virus titers in TCS) (rLCMV/eGFP [4]): did not inhibit assembly de novo of extracellular infectious virus; eGFP expression intensity in infected cells (rLCMV/eGFP [5]): did not affect eGFP expression intensity; IC50 (rLCMV/eGFP [6]; read-out: IC50 as log10 (converted)): 0.00579 µM
COc1ccc([C@@]23Oc4cc(OC)cc(OC)c4[C@]2(O)[C@H](O)[C@H](C(=O)N(C)C)[C@H]3c2ccccc2)cc1 [rocaglamide]	0.037 µM	0.00975 µM	0.1 µM	reduced	dose-dependent rocaglamide inhibition of eGFP expression	reduced eGFP expression	not significantly affected	0.00951 µM	strongly suppressed JUNV multiplication	> 1 µM	neither ouabain nor rocaglamide inhibited cell entry of LCMV	negligible number of eGFP^+ cells	LASV Z budding efficiency (LASV Z-mediated budding): caused a reduction; LCMV Z budding efficiency (LCMV Z-mediated budding): caused a reduction
C[C@]12CC[C@H](O)C[C@H]1CC[C@@H]1[C@@H]2CC[C@]2(C)[C@@H](c3ccc(=O)oc3)CC[C@]12O [bufalin]	0.00166 µM	0.0125 µM	0.0738 µM					0.00185 µM	strongly suppressed JUNV multiplication	0.0164 µM			
